The Kinase Knowledgebase extract (Sharma et al. 2016)
pIC50: −log10 of the molar value.

Target: ROCK2 (human) (UniProt O75116)
Assay: Inhibition of ROCK2 Kinase Activity

Sequence of ROCK2 (human) (O75116 whole entry, looked up): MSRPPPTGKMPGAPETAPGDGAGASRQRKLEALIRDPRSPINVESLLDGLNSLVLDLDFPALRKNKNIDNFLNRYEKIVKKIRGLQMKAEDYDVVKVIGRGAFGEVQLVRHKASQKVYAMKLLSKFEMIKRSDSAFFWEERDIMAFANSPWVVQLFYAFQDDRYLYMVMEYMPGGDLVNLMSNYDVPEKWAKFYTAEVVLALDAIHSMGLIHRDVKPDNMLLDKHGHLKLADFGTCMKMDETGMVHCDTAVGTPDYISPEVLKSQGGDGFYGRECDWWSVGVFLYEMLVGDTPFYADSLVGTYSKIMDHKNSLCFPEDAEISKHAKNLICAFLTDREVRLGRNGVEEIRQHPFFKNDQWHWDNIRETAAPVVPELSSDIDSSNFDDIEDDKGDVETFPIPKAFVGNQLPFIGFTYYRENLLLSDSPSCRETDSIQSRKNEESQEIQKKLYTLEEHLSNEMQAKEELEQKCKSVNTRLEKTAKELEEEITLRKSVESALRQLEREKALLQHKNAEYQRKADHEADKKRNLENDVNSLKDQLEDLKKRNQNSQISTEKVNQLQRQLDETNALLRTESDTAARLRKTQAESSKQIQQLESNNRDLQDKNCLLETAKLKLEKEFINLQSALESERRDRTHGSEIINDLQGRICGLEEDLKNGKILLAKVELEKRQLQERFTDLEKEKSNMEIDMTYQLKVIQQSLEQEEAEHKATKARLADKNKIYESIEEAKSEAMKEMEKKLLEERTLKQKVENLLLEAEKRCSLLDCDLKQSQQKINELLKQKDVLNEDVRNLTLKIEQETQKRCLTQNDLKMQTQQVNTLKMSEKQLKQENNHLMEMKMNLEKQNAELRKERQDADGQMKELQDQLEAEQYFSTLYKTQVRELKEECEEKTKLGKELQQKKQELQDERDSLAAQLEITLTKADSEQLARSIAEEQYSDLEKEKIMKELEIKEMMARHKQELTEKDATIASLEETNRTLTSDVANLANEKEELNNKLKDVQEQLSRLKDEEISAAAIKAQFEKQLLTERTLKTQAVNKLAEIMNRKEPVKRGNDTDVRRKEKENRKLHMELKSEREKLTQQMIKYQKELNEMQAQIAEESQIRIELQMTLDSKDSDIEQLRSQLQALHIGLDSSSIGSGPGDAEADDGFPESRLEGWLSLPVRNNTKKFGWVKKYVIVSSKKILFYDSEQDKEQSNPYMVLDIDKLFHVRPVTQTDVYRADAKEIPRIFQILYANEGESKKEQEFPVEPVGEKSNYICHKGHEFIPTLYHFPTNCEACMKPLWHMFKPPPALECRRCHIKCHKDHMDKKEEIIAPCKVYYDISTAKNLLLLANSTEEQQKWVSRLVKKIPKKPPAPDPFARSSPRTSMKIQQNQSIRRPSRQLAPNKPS

`C[C@H]1CC(=O)CC[C@@H]1C(=O)Nc1cc2cc[nH]c(=O)c2cc1Cl` was tested, and the pIC50 was over 6.00.

For `O=C(Nc1ccc2c(=O)[nH]cnc2c1)C1CCN(Cc2ccccc2)CC1`, the pIC50 was over 6.00.

With `N[C@H]1CC[C@](C(=O)Nc2cc3cc[nH]c(=O)c3cc2Cl)(c2ccc(Cl)cc2)CC1` the pIC50 was over 6.00.

Molecule `O=c1[nH]ccc2cc(NC(=O)[C@H]3CC[C@H](C(=O)O)CC3)c(Cl)cc12` has a pIC50 of over 6.00.

Molecule `O=C(Nc1cc2cc[nH]c(=O)c2cc1Cl)C1(c2ccccc2)CCNC1` (stereo unspecified) has a pIC50 of over 6.00.

Molecule `O=C(O)CC(C(=O)Nc1cc2cc[nH]c(=O)c2cc1Cl)c1ccccc1` (stereo unspecified) has a pIC50 of over 6.00.

With `N[C@H]1CCC[C@H](C(=O)Nc2cc3cc[nH]c(=O)c3cc2Cl)C1` the pIC50 was over 6.00.

Work on `O=c1[nH]ccc2cc(NC(=O)[C@H]3CC[C@@H](O)CC3)c(Cl)cc12` yielded a pIC50 of over 6.00.

`O=C(CNCC1CCCCC1)Nc1ccc2c(=O)[nH]ccc2c1` gave a pIC50 of over 6.00.

In the case of `O=C(Nc1cc2cc[nH]c(=O)c2cc1Cl)c1c(F)cc(F)cc1F`, the pIC50 was over 6.00.

Molecule `O=C(Nc1cc2cc[nH]c(=O)c2cc1Cl)C(c1ccccc1)N1CCC(O)CC1` (stereo unspecified) has a pIC50 of over 6.00.

`C[C@@H]1CNCC[C@@H]1C(=O)Nc1cc2cc[nH]c(=O)c2cc1Cl` gave a pIC50 of over 6.00.

`O=C(Nc1cc2cc[nH]c(=O)c2cc1Cl)c1c(F)ccc(F)c1F` showed a pIC50 of over 6.00.

Molecule `CC(NCC1CCCCC1)C(=O)Nc1cc2cc[nH]c(=O)c2cc1Cl` (stereo unspecified) has a pIC50 of over 6.00.

Work on `N[C@H](CC1CCCCC1)C(=O)Nc1cc2cc[nH]c(=O)c2cc1Cl` yielded a pIC50 of over 6.00.

For `CN(C)CC(=O)Nc1ccc2c(=O)[nH]ccc2c1`, the pIC50 was over 6.00.

For `O=C(Nc1ccc2c(=O)[nH]ccc2c1)c1cccnc1Sc1ccccc1`, the pIC50 was over 6.00.

For `O=C(Nc1cc2cc[nH]c(=O)c2cc1Cl)[C@@H](O)C1CCCCC1`, the pIC50 was over 6.00.

For `O=C(Nc1cc2cc[nH]c(=O)c2cc1Cl)c1ccccc1CN1CCOCC1`, the pIC50 was over 6.00.

For `Cc1cc(S(=O)(=O)N2CCNCC2)ccc1C(=O)Nc1cc2cc[nH]c(=O)c2cc1Cl`, the pIC50 was over 6.00.

`CC(C)N1CCC(C(=O)Nc2cc3cc[nH]c(=O)c3cc2Cl)CC1` gave a pIC50 of over 6.00.

In the case of `CCN(CCN(C)C)C(C(=O)Nc1cc2cc[nH]c(=O)c2cc1Cl)c1ccccc1` (stereo unspecified), the pIC50 was over 6.00.

`O=C(Nc1cc2cc[nH]c(=O)c2cc1Cl)C(NC1CCC1)c1ccccc1` (stereo unspecified) showed a pIC50 of over 6.00.

`O=C(Cc1ccc(F)cc1)Nc1cc2cc[nH]c(=O)c2cc1Cl` was tested, and the pIC50 was over 6.00.

Work on `O=C(Nc1ccc2c(=O)[nH]ccc2c1)[C@@H]1CCCNC1` yielded a pIC50 of over 6.00.

With `CC(C)(C)C(=O)Nc1cc2cc[nH]c(=O)c2cc1Cl` the pIC50 was over 6.00.

For `COC(C(=O)Nc1cc2cc[nH]c(=O)c2cc1Cl)(c1ccccc1)C(F)(F)F` (stereo unspecified), the pIC50 was over 6.00.

Work on `N#Cc1ccccc1C(=O)Nc1cc2cc[nH]c(=O)c2cc1Cl` yielded a pIC50 of over 6.00.

In the case of `O=C(Nc1cc2cc[nH]c(=O)c2cc1Cl)c1ccc2c(c1)CCNC2`, the pIC50 was over 6.00.

For `CSCC(=O)Nc1cc2cc[nH]c(=O)c2cc1Cl`, the pIC50 was over 6.00.

`C[C@](O)(C(=O)Nc1cc2cc[nH]c(=O)c2cc1Cl)c1ccccc1` was tested, and the pIC50 was over 6.00.

`O=C(Nc1cc2cc[nH]c(=O)c2cc1Cl)[C@H]1CNC[C@@H]1c1cccc(Br)c1` showed a pIC50 of over 6.00.

With `O=C(Nc1ccc2c(=O)[nH]cnc2c1)[C@H]1CCCN1` the pIC50 was over 6.00.

Molecule `N[C@H](Cc1cccc2ccccc12)C(=O)Nc1cc2cc[nH]c(=O)c2cc1Cl` has a pIC50 of over 6.00.

With `C[C@@H](Oc1ccccc1)C(=O)Nc1cc2cc[nH]c(=O)c2cc1Cl` the pIC50 was over 6.00.

For `O=C(Nc1ccc2c(=O)[nH]cnc2c1)C1(c2ccc(Cl)cc2)CCCC1`, the pIC50 was over 6.00.

Molecule `O=C(Nc1cc2cc[nH]c(=O)c2cc1Cl)[C@@H]1CCCO1` has a pIC50 of over 6.00.

`CS(=O)(=O)c1ccc(Cl)c(C(=O)Nc2cc3cc[nH]c(=O)c3cc2Cl)c1` gave a pIC50 of over 6.00.

`Cc1cc([N+](=O)[O-])ccc1C(=O)Nc1cc2cc[nH]c(=O)c2cc1Cl` showed a pIC50 of over 6.00.

For `CN1CCN(CC(=O)Nc2cc3cc[nH]c(=O)c3cc2Cl)CC1`, the pIC50 was over 6.00.

`O=C(Nc1cc2cc[nH]c(=O)c2cc1Cl)[C@@H](O)c1ccccc1` was tested, and the pIC50 was over 6.00.

Work on `C[C@H](Oc1ccccc1)C(=O)Nc1cc2cc[nH]c(=O)c2cc1Cl` yielded a pIC50 of over 6.00.

`O=C(Nc1cc2cc[nH]c(=O)c2cc1Cl)c1cccc2c1CCNC2` showed a pIC50 of over 6.00.

`O=C(Nc1ccc2c(=O)[nH]ccc2c1)c1cc(Cl)sc1Cl` gave a pIC50 of over 6.00.

`NCCC(=O)Nc1cc2cc[nH]c(=O)c2cc1Cl` gave a pIC50 of over 6.00.

With `NC(C(=O)Nc1cc2cc[nH]c(=O)c2cc1Cl)c1cccc(Cl)c1` (stereo unspecified) the pIC50 was over 6.00.

`COc1cc2c(=O)[nH]ccc2cc1NC(=O)[C@H](N)C1CCCCC1` was tested, and the pIC50 was over 6.00.

With `N#CCC(=O)Nc1cc2cc[nH]c(=O)c2cc1Cl` the pIC50 was over 6.00.

For `CNC(C(=O)Nc1ccc2c(=O)[nH]cnc2c1)c1ccccc1` (stereo unspecified), the pIC50 was over 6.00.

Work on `N[C@@H](Cc1ccccc1)C(=O)Nc1ccc2c(=O)[nH]cnc2c1` yielded a pIC50 of over 6.00.

`CC(C)CC(N)C(=O)Nc1ccc2c(=O)[nH]cnc2c1` (stereo unspecified) gave a pIC50 of over 6.00.

`O=C(Nc1cc2cc[nH]c(=O)c2cc1Cl)[C@@H]1[C@@H]2CNC[C@@H]21` gave a pIC50 of over 6.00.

With `O=C(CNCC1CCOCC1)Nc1cc2cc[nH]c(=O)c2cc1Cl` the pIC50 was over 6.00.

Work on `O=C(Nc1c(Cl)cc2c(=O)[nH]ccc2c1F)[C@H]1CNC[C@@H]1c1ccccc1` yielded a pIC50 of over 6.00.

`O=C(Nc1ccc2c(=O)[nH]ccc2c1)C1CNCC1c1ccc(F)cc1` (stereo unspecified) gave a pIC50 of over 6.00.

`COC(=O)C[C@@H](C)C(=O)Nc1cc2cc[nH]c(=O)c2cc1Cl` showed a pIC50 of over 6.00.

`O=C(Nc1cc2cc[nH]c(=O)c2cc1Cl)c1cccnc1Sc1ccccc1` was tested, and the pIC50 was over 6.00.

In the case of `O=C(Nc1cc2cc[nH]c(=O)c2cc1Cl)c1cccc([N+](=O)[O-])c1Cl`, the pIC50 was over 6.00.

`O=C(CNCC1CCCCC1)Nc1cc2cc[nH]c(=O)c2cc1Cl` was tested, and the pIC50 was over 6.00.

`Cc1ccc([C@@H](N)C(=O)Nc2cc3cc[nH]c(=O)c3cc2Cl)cc1` gave a pIC50 of over 6.00.

`O=C(Nc1cc2cc[nH]c(=O)c2cc1Cl)c1cccc2c1CNCC2` gave a pIC50 of over 6.00.

`C[C@@](O)(C(=O)Nc1cc2cc[nH]c(=O)c2cc1Cl)c1ccccc1` gave a pIC50 of over 6.00.

`C[C@](O)(C(=O)Nc1ccc2c(=O)[nH]cnc2c1)c1ccc(Cl)cc1` gave a pIC50 of over 6.00.

With `Cc1cc(C(=O)Nc2ccc3c(=O)[nH]cnc3c2)n(C)n1` the pIC50 was over 6.00.

Molecule `CN1CCC(C(=O)Nc2cc3cc[nH]c(=O)c3cc2F)CC1` has a pIC50 of over 6.00.

`CO[C@@H](C(=O)Nc1cc2cc[nH]c(=O)c2cc1Cl)c1ccccc1` gave a pIC50 of over 6.00.

Work on `CN(C)C(C(=O)Nc1cc2nc[nH]c(=O)c2cc1Cl)c1ccccc1` (stereo unspecified) yielded a pIC50 of over 6.00.

In the case of `Cc1ccc(F)cc1C(=O)Nc1cc2cc[nH]c(=O)c2cc1Cl`, the pIC50 was over 6.00.

`N[C@H]1CC[C@@](C(=O)Nc2cc3cc[nH]c(=O)c3cc2Cl)(c2ccc(Cl)cc2)CC1` showed a pIC50 of over 6.00.

`O=C(Nc1ccc2c(=O)[nH]ccc2c1)C1(c2ccc(Cl)cc2)CCCC1` was tested, and the pIC50 was over 6.00.

Molecule `O=C(Nc1cc2cc[nH]c(=O)c2cc1Cl)c1ccc(Cl)cc1Cl` has a pIC50 of over 6.00.

In the case of `O=C(CNCc1ccccn1)Nc1cc2cc[nH]c(=O)c2cc1Cl`, the pIC50 was over 6.00.

Work on `C[C@](O)(C(=O)Nc1cc2nc[nH]c(=O)c2cc1Cl)c1ccc(Cl)cc1` yielded a pIC50 of over 6.00.

Work on `N[C@H](Cc1ccccc1)C(=O)Nc1ccc2c(=O)[nH]cnc2c1` yielded a pIC50 of over 6.00.

`CN(CC(=O)Nc1ccc2c(=O)[nH]cnc2c1)C1CCCCC1` gave a pIC50 of over 6.00.

`O=C(Nc1cc2cc[nH]c(=O)c2cc1Cl)[C@H]1CCCNC1` gave a pIC50 of over 6.00.

In the case of `CCOC(=O)CCC(=O)Nc1ccc2c(=O)[nH]ccc2c1`, the pIC50 was over 6.00.

`N[C@H]1C[C@H](C(=O)Nc2cc3cc[nH]c(=O)c3cc2Cl)C1` gave a pIC50 of over 6.00.

`CC(C)C(C(=O)Nc1cc2cc[nH]c(=O)c2cc1Cl)c1ccc(Cl)cc1` (stereo unspecified) was tested, and the pIC50 was over 6.00.

In the case of `N[C@@H](CC1CCCCC1)C(=O)Nc1cc2cc[nH]c(=O)c2cc1Cl`, the pIC50 was over 6.00.

With `N[C@H](Cc1ccc(Cl)cc1)C(=O)Nc1cc2cc[nH]c(=O)c2cc1Cl` the pIC50 was over 6.00.
